As usually defined, the IC50 is the midpoint of a concentration-inhibition curve. Higher therefore signals weaker potency. For orientation: inhibition means the share of the control response that was lost under treatment.

The results in this text go back to ChEMBL document CHEMBL1152913, “Discovery of 4-azaindoles as novel inhibitors of c-Met kinase” (Bioorg Med Chem Lett, 2009).

SMILES strings stand for the structures. Calls of active or inactive are those of the source. The calls are words filed in the database; no cut-off is given here.

In data set [1] the target is T1, Hepatocyte growth factor receptor (Homo sapiens, UniProt P08581).
Description: (§1) Inhibition of human recombinant His-tagged c-Met by TR-FRET assay
Data set [2] deals with Hepatocyte. Put plainly: Clearance rate in hepatocytes. The format is ADME, cell-based, Liver.
The target in data set [3] is T1, Hepatocyte growth factor receptor. Put plainly: Inhibition of human recombinant His-tagged c-Met at 20 uM by TR-FRET assay. (In TR-FRET formats the signal depends on donor and acceptor labels being close together.)
Data set [4] shares this target. Put plainly: Inhibition of c-Met phosphorylation in human A549 cells after 1 hr. Format: cell-based.
Data set [5] deals with RAC-alpha serine/threonine-protein kinase (Homo sapiens) (UniProt P31749). In words: Inhibition of AKT phosphorylation in human MKN45 cells after 1 hr by Western blot analysis. The format is cell-based. The note with it: MKN-45.
Data set [6] deals with Mitogen-activated protein kinase 3 (Homo sapiens) (UniProt P27361). In words: Inhibition of ERK1 phosphorylation in human MKN45 cells after 1 hr by Western blot analysis. Format: cell-based. The note with it: MKN-45. Background: Immunoblotting shows a protein as a band on a membrane.
Data set [7] deals with Mitogen-activated protein kinase 1 (Homo sapiens) (UniProt P28482). Put plainly: Inhibition of ERK2 phosphorylation in human MKN45 cells after 1 hr by Western blot analysis. The format is cell-based. The following applies: MKN-45.
In data set [8] the target is RAC-alpha serine/threonine-protein kinase (Homo sapiens) (UniProt P31749). Put plainly: Inhibition of AKT assessed as residual activity at 20 uM.
Data set [9] has as its target Mitogen-activated protein kinase 3 (Homo sapiens) (UniProt P27361). Put plainly: Inhibition of ERK1 assessed as residual activity at 20 uM.
The target of data set [10] is Vascular endothelial growth factor receptor 2 (Homo sapiens) (UniProt P35968). Put plainly: Inhibition of KDR assessed as residual activity at 20 uM.
Data set [11] deals with T2, Tyrosine-protein kinase Mer (Homo sapiens) (UniProt Q12866).
T2 sequence (whole entry): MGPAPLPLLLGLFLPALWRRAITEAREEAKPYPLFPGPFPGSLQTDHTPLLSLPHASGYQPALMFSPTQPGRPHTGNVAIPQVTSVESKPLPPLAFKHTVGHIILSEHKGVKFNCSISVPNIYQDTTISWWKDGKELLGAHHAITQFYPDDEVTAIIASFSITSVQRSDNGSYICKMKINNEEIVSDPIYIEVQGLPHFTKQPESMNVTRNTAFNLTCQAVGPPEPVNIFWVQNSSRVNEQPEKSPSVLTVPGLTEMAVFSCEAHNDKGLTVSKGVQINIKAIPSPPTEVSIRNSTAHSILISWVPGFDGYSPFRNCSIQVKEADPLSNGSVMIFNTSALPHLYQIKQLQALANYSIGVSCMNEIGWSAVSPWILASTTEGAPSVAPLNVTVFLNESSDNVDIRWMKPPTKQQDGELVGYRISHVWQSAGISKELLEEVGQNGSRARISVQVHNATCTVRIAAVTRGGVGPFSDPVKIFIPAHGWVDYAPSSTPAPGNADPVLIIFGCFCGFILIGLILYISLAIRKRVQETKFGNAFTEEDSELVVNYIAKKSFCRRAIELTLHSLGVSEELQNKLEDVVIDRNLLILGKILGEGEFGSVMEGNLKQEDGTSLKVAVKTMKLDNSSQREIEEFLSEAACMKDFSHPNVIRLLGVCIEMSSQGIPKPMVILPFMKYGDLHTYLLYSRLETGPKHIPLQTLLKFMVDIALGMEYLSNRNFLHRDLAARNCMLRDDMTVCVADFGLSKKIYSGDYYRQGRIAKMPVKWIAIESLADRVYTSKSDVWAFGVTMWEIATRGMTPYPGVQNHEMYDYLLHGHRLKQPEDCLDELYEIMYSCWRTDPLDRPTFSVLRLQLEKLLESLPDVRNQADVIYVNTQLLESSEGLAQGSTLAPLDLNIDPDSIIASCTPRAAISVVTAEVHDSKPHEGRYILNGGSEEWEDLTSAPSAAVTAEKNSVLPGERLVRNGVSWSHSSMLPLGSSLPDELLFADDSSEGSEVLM
Put plainly: Inhibition of Mer assessed as residual activity at 20 uM.

The target of data set [12] is High affinity nerve growth factor receptor (Homo sapiens) (UniProt P04629). In words: Inhibition of TrkA assessed as residual activity at 20 uM.
The target of data set [13] is Macrophage-stimulating protein receptor (Homo sapiens) (UniProt Q04912). In words: Inhibition of Ron assessed as residual activity at 20 uM.
In data set [14] the target is Mitogen-activated protein kinase 1 (Homo sapiens) (UniProt P28482). In words: Inhibition of ERK2 assessed as residual activity at 20 uM.
Data set [15] addresses T1, Hepatocyte growth factor receptor. In words: Inhibition of c-Met phosphorylation in human MKN45 cells after 1 hr. The format is cell-based, MKN-45.
Data set [16] has the same target. The source holds these as a separate data set.
Description: as §1

`c1ccc(Cn2ccc3ncccc32)cc1`: the IC50 result in [1] is recorded as “Inactive”.
Regarding `O=S(=O)(c1c(Cl)nc2sccn12)n1ccc2ncc(N3CCNCC3)cc21`, the CL in data set [2] was 1 s⁻¹.
On the same count and under the same terms, the result for `O=S(=O)(c1c(Cl)nc2sccn12)n1ccc2ncc(-c3cnn(C4CCNCC4)c3)cc21` reads 0.3 s⁻¹.
On to `O=[N+]([O-])c1ccc(S(=O)(=O)n2ccc3ncccc32)cc1`, for which the inhibition in data set [3] was determined as 16%.
Take `O=S(=O)(c1cccc2nonc12)n1ccc2ncc(-c3cnn(C4CCNCC4)c3)cc21`: the values for the IC50 in data set [4], in [15] and in data set [16] were 130 nM, 200 nM and 9 nM, respectively. In addition, the inhibition result in data set [5], in data set [6] and in data set [7] was “Active” in each case. In addition, the Activity was 88% in [8]; 88% in data set [9]; 3% in [10]; 19% in [11]; 18% in data set [12]; 29% in [13]. Moreover, the inhibition entry in [14] was “inactive”.
